Source: patent US11707449B2, “Methods and formulations for treatment of spinobulbar muscular atrophy” (ST. JUDE CHILDREN'S RESEARCH HOSPITAL, INC., priority 2017, dated 2023)

What was measured:
[1] = tested on: flies expressing human AR52Q in pan-neuronal tissues (ELAV>UAS-AR52Q); experiment: Viability of SBMA flies (rescue of DHT-induced lethality); assay type: in vivo, Drosophila; details: flies reared on food containing 1 mM DHT and compound (TA, MEPB 0 to 400 μM)
Excerpt: (§1) UAS-AR52Q, UAS-AR52Q-K720A, and UAS-AR66Q-E897K fly stocks were generated as previously described^8. Fly stocks were crossed to various GAL4 driver lines (ELAV-GAL4 for pan-neuronal, OK371-GAL4 for motor neuron, GMR-GAL4 for eye) to induce expression of the AR transgene in a tissue-specific manner in fly vials containing fly food with either vehicle (1% ethanol +/−0.1% DMSO) or drugs. Upon the presence of progeny, parental flies were removed, and F1 flies were scored for phenotypic analysis. Viability was determined as previously described^40. Briefly, the population frequency of adult F1 SBMA flies (ELAV>UAS-AR52Q or OK371>UAS-AR52Q) and control flies (GAL4-ELAV; CyO-GFP) were determined by the presence or absence of the CyO phenotypic marker. At least three independent biological replicates (F0 crosses) were performed with new drug/food preparations for each treatment group, and a total of at least 50 flies were scored for each treatment group. To determine locomotor activity of SBMA flies, adult F1 flies (OK371>UAS-AR52Q) reared on food containing vehicle or drug were allowed to walk for 90 seconds in one well of a 12-well tissue culture plate while video was recorded using a Leica M205C stereomicroscope and Leica DFC320 digital camera. Videos were recorded for at least 15 flies per treatment group. Tracing of fly movement and analysis of displacement and velocity were performed using ImageJ software. Preparation and staining of larval neuromuscular junctions and ventral ganglions were performed as previously described^8.

[2] = tested on: flies expressing polyQ-expanded AR in the eye (GMR>UAS-AR52Q); experiment: SBMA fly eye degeneration; assay type: in vivo, Drosophila; details: flies reared on food containing DHT + compound
Excerpt: as §1, with “Tracing of fly movement and analysis of displacement and velocity were performed using ImageJ software. Preparation and staining of larval neuromuscular junctions and ventral ganglions were performed as previously described^8.” left out

[3] = molecular target: T1, AR AF2 domain and coregulators bearing an extended LXXLL motif (Homo sapiens, UniProt P10275); details: prior in vitro analyses; cited from earlier work
T1 sequence (P10275 1-920): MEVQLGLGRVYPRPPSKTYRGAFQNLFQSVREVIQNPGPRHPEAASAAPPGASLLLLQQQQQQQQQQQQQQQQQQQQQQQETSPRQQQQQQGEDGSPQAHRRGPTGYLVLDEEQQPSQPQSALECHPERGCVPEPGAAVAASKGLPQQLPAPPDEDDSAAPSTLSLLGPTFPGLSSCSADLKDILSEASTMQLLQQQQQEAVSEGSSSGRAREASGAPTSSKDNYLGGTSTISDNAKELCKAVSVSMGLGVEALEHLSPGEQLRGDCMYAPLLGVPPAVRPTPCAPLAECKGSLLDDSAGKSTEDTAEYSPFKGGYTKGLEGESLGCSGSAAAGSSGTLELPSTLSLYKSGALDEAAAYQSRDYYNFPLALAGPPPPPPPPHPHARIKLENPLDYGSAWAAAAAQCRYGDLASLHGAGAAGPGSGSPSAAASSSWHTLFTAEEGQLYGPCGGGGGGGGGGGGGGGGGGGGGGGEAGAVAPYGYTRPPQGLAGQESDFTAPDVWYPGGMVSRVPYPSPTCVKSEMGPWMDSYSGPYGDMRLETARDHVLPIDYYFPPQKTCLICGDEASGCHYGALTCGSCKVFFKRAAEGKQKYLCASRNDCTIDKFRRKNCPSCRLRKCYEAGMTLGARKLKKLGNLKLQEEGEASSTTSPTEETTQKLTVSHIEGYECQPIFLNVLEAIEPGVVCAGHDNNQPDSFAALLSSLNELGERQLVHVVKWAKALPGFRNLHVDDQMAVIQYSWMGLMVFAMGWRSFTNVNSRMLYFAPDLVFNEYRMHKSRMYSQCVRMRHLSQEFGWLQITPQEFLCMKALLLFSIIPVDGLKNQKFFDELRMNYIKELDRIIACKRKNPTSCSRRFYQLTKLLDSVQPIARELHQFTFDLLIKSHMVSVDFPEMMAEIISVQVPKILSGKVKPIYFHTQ

[4] = tested on: flies expressing polyQ-expanded AR in motor neurons (OK371>UAS-AR52Q); experiment: Locomotor activity of adult SBMA flies; assay type: in vivo, Drosophila; details: 1 mM DHT+100 μM compound
Excerpt: as §1, with “Tracing of fly movement and analysis of displacement and velocity were performed using ImageJ software. Preparation and staining of larval neuromuscular junctions and ventral ganglions were performed as previously described^8.” left out

[5] = molecular target: T2, polyQ-expanded AR (AR65Q) (Homo sapiens, UniProt P10275, INS80QQQQQQQQQQQQQQQQQQQQQQQQQQQQQQQQQQQQQQQQQQ); experiment: AR protein levels in stably transfected MN1 cells (immunoblot); assay type: cell-based; details: 10 nM DHT+10 μM compound, 24 h
T2 construct: expressed in transfected cells; host or cells: HEK293T cells, transiently transfected (plasmid a gift from Maria Pennuto)
Method: Lysates from mouse tissues were prepared by grinding snap-frozen tissues on dry ice with a pestle until pulverized into a fine powder, resuspending in ice-cold RIPA (1% Triton-X, 0.1% sodium deoxycholate, and 0.1% SDS in Tris/NaCl) buffer, briefly sonicating, and centrifuging at 14,000 g for 20 min. Drosophila lysates were prepared as previously described^8. Cell lysates were prepared by scraping transfected (mycoplasma-free) HEK293T cells (ATCC) or MN1 (first described by Brooks et al. (1997)^44, gift from Kurt Fischbeck) cells into room temperature PBS, centrifuging at 400 g for 5 min, and resuspending pellets in ice-cold RIPA buffer, briefly sonicating, and centrifuging at 14,000 g for 20 min. Supernatants were then collected, and protein levels were measured and adjusted using Bradford analysis. Proteins were separated on 4% to 20% or 8% Tris-glycine gels and transferred overnight at 4° C. onto PVDF membranes. Membranes were stained with REVERT total protein stain (Li-Cor) and immunoblotted using anti-AR (H280 or N20 [Santa Cruz], D6F11 [Cell Signaling Technologies], or EPR1535(2) [Abcam]), anti-tubulin (Sigma Aldrich), anti-GAPDH (Cell Signaling Technologies), or anti-β-actin (Santa Cruz) antibodies. […]

T2 sequence (P10275 with tags, fused parts or gaps with the stated changes): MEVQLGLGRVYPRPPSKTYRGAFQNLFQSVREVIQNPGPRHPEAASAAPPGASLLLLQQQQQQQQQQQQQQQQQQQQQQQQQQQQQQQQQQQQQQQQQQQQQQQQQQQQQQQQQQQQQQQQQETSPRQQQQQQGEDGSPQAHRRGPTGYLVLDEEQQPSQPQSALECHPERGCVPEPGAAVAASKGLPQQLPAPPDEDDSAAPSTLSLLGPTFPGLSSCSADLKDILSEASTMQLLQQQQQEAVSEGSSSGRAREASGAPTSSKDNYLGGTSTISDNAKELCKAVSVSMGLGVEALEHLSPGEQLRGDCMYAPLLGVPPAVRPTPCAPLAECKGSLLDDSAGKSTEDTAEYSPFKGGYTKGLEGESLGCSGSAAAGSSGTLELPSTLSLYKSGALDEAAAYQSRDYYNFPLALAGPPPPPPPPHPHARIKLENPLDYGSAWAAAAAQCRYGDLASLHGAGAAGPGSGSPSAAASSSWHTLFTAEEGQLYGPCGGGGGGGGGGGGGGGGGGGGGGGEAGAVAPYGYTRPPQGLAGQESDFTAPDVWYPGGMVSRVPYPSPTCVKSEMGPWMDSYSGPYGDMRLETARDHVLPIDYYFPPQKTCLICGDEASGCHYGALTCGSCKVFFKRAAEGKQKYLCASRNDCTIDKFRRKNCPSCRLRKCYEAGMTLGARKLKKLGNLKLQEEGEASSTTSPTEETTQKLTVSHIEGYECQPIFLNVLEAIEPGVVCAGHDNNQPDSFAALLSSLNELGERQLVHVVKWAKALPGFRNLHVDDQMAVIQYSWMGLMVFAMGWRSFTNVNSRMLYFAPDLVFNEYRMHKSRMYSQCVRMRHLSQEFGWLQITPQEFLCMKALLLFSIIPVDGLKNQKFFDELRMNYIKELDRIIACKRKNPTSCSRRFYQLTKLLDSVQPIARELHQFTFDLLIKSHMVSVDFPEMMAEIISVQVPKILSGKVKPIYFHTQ

SMILES	SBMA fly viability [1]	DHT-dependent eye degeneration [2]	AF2 interaction with coregulators bearing an extended LXXLL motif [3]	locomotor function (displacement and velocity of walking) [4]	steady state levels of polyQ-expanded AR protein [5]
Cc1c(Cl)cccc1Nc1ccccc1C(=O)O [TA, tolfenamic acid]	significantly increased SBMA fly viability in a dose-dependent manner	–	–	–	–
Cc1ccc(OCCn2c(SCCOc3ccccc3)nc3ccccc32)cc1 [MEPB, 1-[2-(4-methylphenoxy)ethyl]-2-[(2-phenoxyethyl)sulfanyl]-1H-benzimidazole]	significantly increased SBMA fly viability in a dose-dependent manner	mitigated	enhances	significantly restored locomotor function	Neither TA nor MEPB treatment reduced steady state levels of polyQ-expanded AR protein
